C=C(C)C1CC=C(C)CC1 (stereo unspecified) [1-methyl-4-(1-methylethenyl)cyclohexene]
Liquid, Closed cell (Static) method
Conditions	vapor or sublimation pressure [kPa]
346.96 K	3.01
353.19 K	4.013
358.22 K	5.008
362.25 K	6.002
366.08 K	7.018
369.31 K	8.018
372.54 K	9.043
375.27 K	10.02
379.93 K	12.04
386.12 K	15.04
394.56 K	20.01
401.29 K	25.04
407.1 K	30.09
416.21 K	39.91
420.21 K	44.8

C=CC(C)CCC=C(C)C (stereo unspecified) [3,7-dimethyl-1,6-octadiene]
Liquid, Closed cell (Static) method
Conditions	vapor or sublimation pressure [kPa]
316.5 K	1.26
322.57 K	1.76
327.44 K	2.26
334.96 K	3.26
340.66 K	4.26
345.44 K	5.26
349.51 K	6.26
356.16 K	8.25
361.68 K	10.23
373.78 K	16.25
379.02 K	20.26
385.62 K	25.26
391.11 K	30.26

CC(=O)O[C@@H]1C[C@H]2CC[C@]1(C)C2(C)C (relative stereo)
Liquid, Closed cell (Static) method
Conditions	vapor or sublimation pressure [kPa]
381.09 K	2.004
390.08 K	3.021
397.1 K	4.013
402.69 K	5.01
407.45 K	6.023
411.6 K	7.027
414.92 K	8.014
418.66 K	9.042
421.67 K	10.03
427.93 K	12.04
434.61 K	15.02
442.35 K	19.12
452.64 K	26.01
457.89 K	30.15
463.13 K	35
468.12 K	40.12
472.63 K	45.25

CCCCCCCCO [octan-1-ol]
Liquid, Closed cell (Static) method
Conditions	vapor or sublimation pressure [kPa]
358.05 K	1.088
363.99 K	1.527
368.73 K	2.016
381.98 K	4.073
393.36 K	7.08
401.09 K	10.04
410.79 K	15.04
418.15 K	20.03
429.75 K	30.2

C[C@H]1CC[C@@H]2C[C@H]1C2(C)C (racemic) [(1RS,2SR,5RS)-2,6,6-trimethylbicyclo[3.1.1]heptane]
Liquid, Closed cell (Static) method
Conditions	vapor or sublimation pressure [kPa]
330.27 K	2.04
338.5 K	3.03
344.71 K	4.015
349.8 K	4.98
357.77 K	7.015
360.94 K	8.015
366.78 K	10.04
373.45 K	13.04
379.03 K	16.05
385.72 K	20.04
392.24 K	25.05
397.94 K	30.04
407.54 K	40.03
415.01 K	50.03

O [water]
Liquid, Closed cell (Static) method
Conditions	vapor or sublimation pressure [kPa]
292.54 K	2.16
303.48 K	4.43
310.23 K	6.19
315.78 K	8.497
319.82 K	10.5
327.62 K	15.71
334.02 K	20.83
343.07 K	30.04

C=C1C2CCC(C2)C1(C)C (stereo unspecified) [2,2-dimethyl-3-methylenebicyclo[2.2.1]heptane]
Conditions	vapor or sublimation pressure [kPa]
309.7 K, Metastable liquid, Closed cell (Static) method	1.007
322.72 K, Closed cell (Static) method, Liquid	2.026
331.06 K, Closed cell (Static) method, Liquid	3.053
337.27 K, Closed cell (Static) method, Liquid	4.056
342.04 K, Closed cell (Static) method, Liquid	5.043
346.21 K, Closed cell (Static) method, Liquid	6.007
350.07 K, Closed cell (Static) method, Liquid	7.068
353.23 K, Closed cell (Static) method, Liquid	8.029
355.98 K, Closed cell (Static) method, Liquid	9.003
358.83 K, Closed cell (Static) method, Liquid	10.07
365.69 K, Closed cell (Static) method, Liquid	13.05
369.58 K, Closed cell (Static) method, Liquid	15.06
378.51 K, Closed cell (Static) method, Liquid	20.12
384.98 K, Closed cell (Static) method, Liquid	25
390.65 K, Closed cell (Static) method, Liquid	29.95
399.95 K, Closed cell (Static) method, Liquid	40.04
407.61 K, Closed cell (Static) method, Liquid	50.02

C=CC(C)CCCC(C)(C)O (stereo unspecified) [2,6-dimethyl-7-octen-2-ol]
Liquid, Closed cell (Static) method
Conditions	vapor or sublimation pressure [kPa]
351.52 K	0.82
354.37 K	1.015
360.41 K	1.516
365.22 K	2.03
372.31 K	3.024
377.4 K	4.017
381.86 K	5.015
388.97 K	7.03
394.58 K	9.035
401.82 K	12.04
407.61 K	15.04
415.17 K	20.03
421.59 K	25.04

— the NIST ThermoML archive (doi:10.1021/je400951k)
